# From patent US20220235065A1 (Epizyme, Inc., priority 2016, published 2022)
# Counter-ions that a name gives are not always drawn.
# Experiments:
# EHMT1 = target: T1, EHMT1 (Homo sapiens, UniProt Q9H9B1); test: EHMT1 PEP (EHMT1 peptide enzyme assay); assay type: biochemical; settings: peptide substrate enzyme assay
# T1 sequence (Q9H9B1 1-1298): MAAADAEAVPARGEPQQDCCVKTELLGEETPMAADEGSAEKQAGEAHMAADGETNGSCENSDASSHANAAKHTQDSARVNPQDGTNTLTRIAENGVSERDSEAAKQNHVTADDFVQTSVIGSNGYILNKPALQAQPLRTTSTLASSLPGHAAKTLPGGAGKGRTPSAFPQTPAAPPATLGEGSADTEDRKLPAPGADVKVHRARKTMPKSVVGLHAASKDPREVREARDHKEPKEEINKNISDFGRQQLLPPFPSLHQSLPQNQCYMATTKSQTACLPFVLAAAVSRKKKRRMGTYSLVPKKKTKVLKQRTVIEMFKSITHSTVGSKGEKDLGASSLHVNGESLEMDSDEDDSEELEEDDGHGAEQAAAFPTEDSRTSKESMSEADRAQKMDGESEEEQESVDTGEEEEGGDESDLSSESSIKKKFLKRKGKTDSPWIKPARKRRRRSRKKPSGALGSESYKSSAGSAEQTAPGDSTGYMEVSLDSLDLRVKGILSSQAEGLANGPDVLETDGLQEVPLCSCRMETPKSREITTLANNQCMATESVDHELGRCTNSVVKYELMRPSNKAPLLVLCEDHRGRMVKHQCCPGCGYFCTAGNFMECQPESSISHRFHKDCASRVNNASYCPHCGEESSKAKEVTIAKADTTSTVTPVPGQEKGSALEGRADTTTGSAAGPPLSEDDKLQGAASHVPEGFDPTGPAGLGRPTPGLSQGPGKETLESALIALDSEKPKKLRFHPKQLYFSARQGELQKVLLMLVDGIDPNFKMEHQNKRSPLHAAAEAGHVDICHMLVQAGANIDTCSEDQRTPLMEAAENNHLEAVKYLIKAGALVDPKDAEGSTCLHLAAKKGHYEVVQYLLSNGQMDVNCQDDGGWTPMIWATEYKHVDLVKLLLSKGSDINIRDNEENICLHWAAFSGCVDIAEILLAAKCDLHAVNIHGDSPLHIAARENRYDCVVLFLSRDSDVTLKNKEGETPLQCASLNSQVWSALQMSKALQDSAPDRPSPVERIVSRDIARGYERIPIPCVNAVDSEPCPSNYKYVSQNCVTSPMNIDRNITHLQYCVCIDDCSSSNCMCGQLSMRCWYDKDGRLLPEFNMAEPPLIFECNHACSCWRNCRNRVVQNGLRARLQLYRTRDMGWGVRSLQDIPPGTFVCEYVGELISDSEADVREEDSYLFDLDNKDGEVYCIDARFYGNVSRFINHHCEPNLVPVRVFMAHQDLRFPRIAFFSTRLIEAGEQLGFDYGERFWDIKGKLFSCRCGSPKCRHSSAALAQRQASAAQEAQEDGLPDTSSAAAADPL
# [1] = target: T2, recombinant purified human EHMT2 913-1193 (Homo sapiens, UniProt Q96KQ7); test: EHMT2 enzyme assay on histone peptide substrate (3H-SAM Flashplate); assay type: biochemical; settings: read-out: EHMT2 PEP (IC50 μM)
# T2 construct: Recombinant purified human EHMT2 913-1193 (55 μM) synthesized by Viva was used for all experiments; purchased Viva
# T2 sequence (Q96KQ7 913-1193): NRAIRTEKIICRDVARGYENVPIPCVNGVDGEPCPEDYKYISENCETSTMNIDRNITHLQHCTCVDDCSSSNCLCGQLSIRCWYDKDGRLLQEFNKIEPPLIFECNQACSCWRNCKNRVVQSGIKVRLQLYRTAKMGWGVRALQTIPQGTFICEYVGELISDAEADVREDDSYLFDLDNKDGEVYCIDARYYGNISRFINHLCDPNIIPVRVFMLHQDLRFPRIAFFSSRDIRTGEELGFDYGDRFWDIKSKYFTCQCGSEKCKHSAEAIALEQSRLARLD
# How it was run: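 Compounds (10-point 3-fold series, top 50 μM final, 2% DMSO) preincubated 30 min with 0.031 nM EHMT2 in 20 mM Bicine pH 7.5, 1 mM TCEP; reaction started with 3H-SAM and biotinylated H3 1-15 peptide, both at Km, run 60 min at room temperature. Flashplate capture; IC50 from four-parameter fit, triplicates.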
SMILES,IC50 (EHMT1) [µM],IC50 [1] [µM]
CNc1cc(C)nc(Nc2ccc(OC)c(-c3cc(C4CC4)on3)c2)n1 [Compound 13],0.1 to 1,1 to 10
"CNc1cc(C)nc(Nc2ccc(OC)c(-n3cc(C4CC4)cn3)c2)n1 [Compound 14, 2-N-[3-(4-cyclopropyl-1H-pyrazol-1-yl)-4-methoxyphenyl]-4-N,6-dimethylpyrimidine-2,4-diamine]",0.1 to 1,1 to 10
"CNc1cc(C)nc(Nc2ccc(OC)c(-n3cccn3)c2)n1 [Compound 15, 2-N-[4-methoxy-3-(1H-pyrazol-1-yl)phenyl]-4-N,6-dimethylpyrimidine-2,4-diamine; trifluoroacetic acid]",> 10,> 10
CNc1cc(C)nc(Nc2cnc(OC)c(-n3ncc4c3CCNC4)c2)n1 [Compound 19],1 to 10,1 to 10
CNc1cc(C)nc(Nc2ccc(OC)c(-c3nnc4n3CCNC4)c2)n1 [Compound 21],> 10,> 10
"CNc1cc(C)nc(Nc2ccc(OC)c(-n3cc4c(n3)CNCC4)c2)n1 [Compound 22, 2-N-(4-methoxy-3-[2H,4H,5H,6H,7H-pyrazolo[3,4-c]pyridin-2-yl]phenyl)-4-N,6-dimethylpyrimidine-2,4-diamine hydrochloride]",1 to 10,> 10
"CNc1cc(C)nc(Nc2ccc(OC)c(-n3cc(CN)cn3)c2)n1 [Compound 23, 2-N-[3-[4-(aminomethyl)-1H-pyrazol-1-yl]-4-methoxyphenyl]-4-N,6-dimethylpyrimidine-2,4-diamine; trifluoroacetic acid]",< 0.1,< 0.1
CNc1cc(C)nc(Nc2ccc(OC)c(-n3nccc3CN)c2)n1 [Compound 24],1 to 10,1 to 10
"CNc1cc(C)nc(Nc2ccc(OC)c(-n3ncc4c3CCCC4)c2)n1 [Compound 26, 2-N-[4-methoxy-3-(4,5,6,7-tetrahydro-1H-indazol-1-yl)phenyl]-4-N,6-dimethylpyrimidine-2,4-diamine trifluoroacetic acid]",1 to 10,> 10
"CNc1nc(Nc2ccc(OC)c(-n3cc4c(n3)CCNC4)c2)nc(C)c1F [Compound 27, 5-fluoro-2-N-(4-methoxy-3-[2H,4H,5H,6H,7H-pyrazolo[4,3-c]pyridin-2-yl]phenyl)-4-N,6-dimethylpyrimidine-2,4-diamine trifluoroacetic acid]",0.1 to 1,0.1 to 1
"CNc1nc(Nc2ccc(OC)c(-n3ncc4c3CCNC4)c2)nc(C)c1F [Compound 28, 5-fluoro-2-N-(4-methoxy-3-[1H,4H,5H,6H,7H-pyrazolo[4,3-c]pyridin-1-yl]phenyl)-4-N,6-dimethylpyrimidine-2,4-diamine trifluoroacetic acid]",1 to 10,1 to 10
CNc1cc(C)nc(Nc2ccc(OC)c(-c3c(C)nc4n3CCNC4)c2)n1 [Compound 30],> 10,> 10
CNc1cc(C)nc(Nc2ccc(OC)c(-c3nnc4n3CCN(C)C4)c2)n1 [Compound 31],> 10,> 10
CNc1cc(C)nc(Nc2ccc(OC)c(-n3ncc4c3CCCN4)c2)n1 [Compound 32],> 10,> 10
"CNc1cc(C)nc(Nc2ccc(OC)c(-c3cccc4[nH]ccc34)c2)n1 [Compound 33, 2-N-[3-(1H-indol-4-yl)-4-methoxyphenyl]-4-N,6-dimethylpyrimidine-2,4-diamine hydrochloride]",> 10,> 10
"CNc1cc(C)nc(Nc2ccc(OC)c(-n3ncc4cnccc43)c2)n1 [Compound 35, 2-N-(4-methoxy-3-[1H-pyrazolo[4,3-c]pyridin-1-yl]phenyl)-4-N,6-dimethylpyrimidine-2,4-diamine; trifluoroacetic acid]",1 to 10,1 to 10
CNc1cc(C)nc(Nc2ccc(OC)c(-n3ncc4ccncc43)c2)n1 [Compound 36],1 to 10,> 10
"CNc1cc(C)nc(Nc2ccc(OC)c(-c3cccc4[nH]ncc34)c2)n1 [Compound 37, 2-N-[3-(1H-indazol-4-yl)-4-methoxyphenyl]-4-N,6-dimethylpyrimidine-2,4-diamine; trifluoroacetic acid]",> 10,> 10
CNc1cc(C)nc(Nc2ccc(OC)c(-c3nc4cnccn4n3)c2)n1 [Compound 38],1 to 10,> 10
CNc1cc(C)nc(Nc2ccc(OC)c(-c3c(C)nc4cnccn34)c2)n1 [Compound 39],> 10,> 10

SMILES,IC50 (EHMT1) [µM],IC50 [1] [µM]
CCc1ccc(Nc2nc(C)cc(NC)n2)cc1C(=O)Nc1cccnc1 [Compound 244],> 10,> 10
CNc1cc(C)nc(Nc2ccc(Cl)c(C(=O)Nc3ccnnc3)c2)n1 [Compound 245],> 10,> 10
CNc1cc(C)nc(Nc2ccc(Cl)c(C(=O)Nc3nccs3)c2)n1 [Compound 246],0.1 to 1,1 to 10
Cc1cc(NC2CCNCC2)ncc1-c1cc2[nH]ccc2cn1 [Compound 247],1 to 10,1 to 10
CNc1cc(C)nc(Nc2ccc(Cl)c(C(=O)Nc3cnccn3)c2)n1 [Compound 251],0.1 to 1,1 to 10
CNc1cc(C)nc(Nc2ccc(Cl)c(-c3cc4[nH]ccc4cn3)c2)n1 [Compound 255],< 0.1,< 0.1
CNc1cc(C)nc(Nc2ccc(C)c(-c3cc4[nH]ccc4cn3)c2)n1 [Compound 256],< 0.1,< 0.1
CNc1nc2cc(-c3cc4[nH]ccc4cn3)c(C)cc2n1C [Compound 257],0.1 to 1,1 to 10
CNc1cc(C)nc(Nc2ccc(Cl)c(C(=O)Nc3ncccn3)c2)n1 [Compound 258],0.1 to 1,1 to 10
CNc1cc(C)nc(Nc2ccc(Cl)c(C(=O)Nc3ccncn3)c2)n1 [Compound 259],1 to 10,> 10
CNc1cc(C)nc(Nc2ccc(Cl)c(-c3cc4c(cn3)CC(=O)N4)c2)n1 [Compound 260],0.1 to 1,1 to 10
"CNCc1cnn(-c2cc(Nc3nc(C)cc(NC)n3)ccc2Cl)c1 [Compound 262, N2-(4-chloro-3-(4-((methylamino)methyl)-1H-pyrazol-1-yl)phenyl)-N4,6-dimethylpyrimidine-2,4-diamine]",< 0.1,< 0.1
CCc1ccc(Nc2nc(C)cc(NC)n2)cc1-c1cc2ccncc2[nH]1 [Compound 269],< 0.1,< 0.1
CNc1cc(C)nc(Nc2ccc(C)c(-c3[nH]c4cnccc4c3C#N)c2)n1 [Compound 271],1 to 10,1 to 10
CNc1cc(C)nc(Nc2ccc(C)c(-c3cc4ccccc4[nH]3)c2)n1 [Compound 274],1 to 10,> 10
CCNc1c[nH]c(=O)c(-c2cc(Nc3nc(C)cc(NC)n3)ccc2C)c1 [Compound 276],1 to 10,1 to 10
CNc1nc2cc(-c3cc4ccncc4[nH]3)c(C)cc2n1C [Compound 278],< 0.1,< 0.1
CNc1cc(C)nc(Nc2ccc(C)c(-c3nc4ccncc4[nH]3)c2)n1 [Compound 279],< 0.1,< 0.1
CNc1cc(C)nc(Nc2ccc(C)c(C(=O)Nc3cscn3)c2)n1 [Compound 280],1 to 10,> 10
CNc1cc(C)nc(Nc2ccc(C)c(-n3cc4cnccc4n3)c2)n1 [Compound 282],< 0.1,< 0.1
